Data on 1 molecule can be found in patent US20220000952A1, “METHOD PREPARING ANTRODIA CINNAMOMEA EXTRACT AND ANTRODIA CINNAMOMEA COMPOSITION, AND PHARMACEUTICAL COMPOSITION” (priority 2018, published 2022).

Molecules are shown by their SMILES.

The data set has as its system bone marrow inhibition of chemotherapeutic drug Cisplatin. In words: Efficacy test for improving the bone marrow inhibition of chemotherapeutic drug cisplatin in C57BL/6 immune normal mice. Format: in vivo. Particulars: cisplatin alone 20 mg/kg i.p. day 1. How it is done: The animals used in this study were C57B116 mice which were commercially available from Taiwan Experimental Animal Centers and six weeks old. The feeding temperature was controlled to be 25±2° C., the illumination time was 08: 00-20: 00, sufficient feed and drinking water were provided daily, and the padding was replaced twice a week.
The cisplatin (cis, 20 mg/kg) was administered by intraperitoneal injection on the first day. The Antrodia cinnamomea composition (400 mg/kg) was administered in a tube-teed manner on the 1st to 5th day, and the time of tube feeding on the first day was 4 hours after the chemotherapeutic drug was administered. The animal groups were the control group,Cis and Antrodia cinnamomea compositions (AC) respectively, with 6 mice in each group and 18 mice in 3 groups.
The experimental animals were sacrificed in a CO2 manner on the sixth day, the thigh bones of the mice were surgically removed, both ends of the bones were cut, bone marrow cells were flushed out, and after centrifugation and washing, the cells were added to MethoCult M3334 medium or MethoCult M3234 medium, and allowed to stand in a humidified incubator containing 5% CO2 at 37° C. and cultured, the former was cultured for 48 hours to observe by microscope and calculate the number of CFU-E (Colony-forming unit-erythroid) colonies, and the latter was cultured for 7 days to observe by microscope and calculate the number of CFU-GM(Colony-forming unit-granulocyte, macrophage) colonies. The colony numbers of CFU-E and CFU-GM were counted by observation in the whole field of view.
Before the experimental animals were sacrificed, the whole blood was collected in a cheek blood collection manner, and anticoagulant whole blood was used for complete blood count (CBC) to determine the number of peripheral white blood cells.
One-way analysis of variance (One-Way ANOVA) was used for data analysis. When the analysis result reached a significant level, Fisher LSD was used for subsequent comparison.

On to `N.N.[Cl][Pt][Cl]` [cisplatin], for which the “number of white blood cells (peripheral blood)” value (FIG. 5) is “can reduce the number of white blood cells”. The “number of CFU-GM (myeloid leukocyte precursor cells)” value (FIG. 6) is reported as “inhibits the number of myeloid leukocyte precursor cells CFU-GM”. The “number of CFU-E (bone marrow red blood cell precursor cells)” value (FIG. 7) is listed as “can inhibit the number of bone marrow red blood cell precursor cells CFU-E”.
